Reference: PMC11270923 (BMC Chemistry, 2024)

Columns and labels:
[1] = 298.15 K, methanol + water, 0.1 methanol weight fraction; cited from earlier work
[2] = Thermodynamic dissolution properties from Van't Hoff and Gibbs equations; format: physicochemical
Excerpt: The Gibbs and […] equations were used to determine the thermodynamic parameters of dissolution. A mean harmonic temperature of 305.55 K was utilized for the calculations, which were based on a temperature range of 298.15 K to 313.15 K [35]. […] On the other hand, ΔHsolno can be calculated by plotting lnx1 versus 1/T-1/Thm which is called van’t Hoff plot:16 ΔHsolno=-R(∂lnx1/∂(1/T-1/Thm))P 17 ΔGsolno=-RThm×intercept
By solving Eqs. 16 and 17, we can determine the values of the parameters ΔHsolno and ΔGsolno . The standard molar entropy of dissolution, ΔSsolno , can then be calculated using the following equation [40–42]:18 ΔSsolno=ΔHsolno-ΔGsolno/Thm
The relative contributions of entropy and enthalpy to the standard molar Gibbs free energy of dissolution of ACP are explained by Eqs. 17, 18, as shown by the symbols ξH and ξTS , respectively:19 %ξH=ΔHsolno/ΔHsolno+TΔSsolno×100 20 %ξTS=TΔSsolno/ΔHsolno+TΔSsolno×100

[3] = water+[DEA]La w3=0.0000, mean temperature 305.55 K
[4] = water+[DEA]La w3=0.0200, mean temperature 305.55 K
[5] = water+[DEA]La w3=0.0500, mean temperature 305.55 K
[6] = water+[DEA]La w3=0.0700, mean temperature 305.55 K
[7] = water+[DEA]La w3=0.1000, mean temperature 305.55 K
[8] = water+[DEA]La w3=0.1500, mean temperature 305.55 K
[9] = water+[DEA]La w3=0.2000, mean temperature 305.55 K
[10] = water+[MEA]La w3=0.0000, mean temperature 305.55 K
[11] = water+[MEA]La w3=0.0200, mean temperature 305.55 K
[12] = water+[MEA]La w3=0.0500, mean temperature 305.55 K
[13] = water+[MEA]La w3=0.0700, mean temperature 305.55 K
[14] = water+[MEA]La w3=0.1000, mean temperature 305.55 K
[15] = water+[MEA]La w3=0.1500, mean temperature 305.55 K
[16] = water+[MEA]La w3=0.2000, mean temperature 305.55 K
[17] = water+[TEA]La w3=0.0000, mean temperature 305.55 K
[18] = water+[TEA]La w3=0.0200, mean temperature 305.55 K
[19] = water+[TEA]La w3=0.0500, mean temperature 305.55 K
[20] = water+[TEA]La w3=0.0700, mean temperature 305.55 K
[21] = water+[TEA]La w3=0.1000, mean temperature 305.55 K
[22] = water+[TEA]La w3=0.1500, mean temperature 305.55 K
[23] = water+[TEA]La w3=0.2000, mean temperature 305.55 K

CC(=O)Nc1ccc(O)cc1 [ACP, Acetaminophen]
ACP solubility [1]: 2.65 × 10^–3 mole fraction | TMΔHsoln∘ [2, 3]: 2.289 kcal/mol | ΔGsoln∘ [2, 3]: 3.6702 kcal/mol | ΔHsoln∘ [2, 3]: 5.9591 kcal/mol | ξH [2, 3]: 72.250% | ξTS [2, 3]: 27.750% | TMΔHsoln∘ [2, 4]: 1.438 kcal/mol | ΔGsoln∘ [2, 4]: 3.489 kcal/mol | ΔHsoln∘ [2, 4]: 4.9264 kcal/mol | ξH [2, 4]: 77.411% | ξTS [2, 4]: 22.589% | TMΔHsoln∘ [2, 5]: 0.108 kcal/mol | ΔGsoln∘ [2, 5]: 3.3989 kcal/mol | ΔHsoln∘ [2, 5]: 3.5065 kcal/mol | ξH [2, 5]: 97.024% | ξTS [2, 5]: 2.976% | ΔGsoln∘ [2, 6]: 3.3511 kcal/mol | ΔHsoln∘ [2, 6]: 3.1637 kcal/mol | ξH [2, 6]: 94.407% | ξTS [2, 6]: 5.593% | TMΔHsoln∘ [2, 7]: 0.679 kcal/mol | ΔGsoln∘ [2, 7]: 3.2808 kcal/mol | ΔHsoln∘ [2, 7]: 3.9601 kcal/mol | ξH [2, 7]: 85.361% | ξTS [2, 7]: 14.639% | TMΔHsoln∘ [2, 8]: 0.123 kcal/mol | ΔGsoln∘ [2, 8]: 3.2333 kcal/mol | ΔHsoln∘ [2, 8]: 3.3559 kcal/mol | ξH [2, 8]: 96.472% | ξTS [2, 8]: 3.528% | TMΔHsoln∘ [2, 9]: 0.3011 kcal/mol | ΔGsoln∘ [2, 9]: 3.1683 kcal/mol | ΔHsoln∘ [2, 9]: 3.4692 kcal/mol | ξH [2, 9]: 92.015% | ξTS [2, 9]: 7.985% | TMΔHsoln∘ [2, 10]: 2.289 kcal/mol | ΔGsoln∘ [2, 10]: 3.6702 kcal/mol | ΔHsoln∘ [2, 10]: 5.9591 kcal/mol | ξH [2, 10]: 72.250% | ξTS [2, 10]: 27.750% | TMΔHsoln∘ [2, 11]: 1.168 kcal/mol | ΔGsoln∘ [2, 11]: 3.4405 kcal/mol | ΔHsoln∘ [2, 11]: 4.609 kcal/mol | ξH [2, 11]: 79.777% | ξTS [2, 11]: 20.223% | ΔGsoln∘ [2, 12]: 3.3752 kcal/mol | ΔHsoln∘ [2, 12]: 3.3439 kcal/mol | ξH [2, 12]: 99.076% | ξTS [2, 12]: 0.924% | ΔGsoln∘ [2, 13]: 3.2777 kcal/mol | ΔHsoln∘ [2, 13]: 2.9484 kcal/mol | ξH [2, 13]: 89.953% | ξTS [2, 13]: 10.047% | ΔGsoln∘ [2, 14]: 3.2139 kcal/mol | ΔHsoln∘ [2, 14]: 3.1785 kcal/mol | ξH [2, 14]: 98.898% | ξTS [2, 14]: 1.102% | TMΔHsoln∘ [2, 15]: 0.4615 kcal/mol | ΔGsoln∘ [2, 15]: 3.1248 kcal/mol | ΔHsoln∘ [2, 15]: 3.5863 kcal/mol | ξH [2, 15]: 88.600% | ξTS [2, 15]: 11.400% | TMΔHsoln∘ [2, 16]: 0.2928 kcal/mol | ΔGsoln∘ [2, 16]: 3.0667 kcal/mol | ΔHsoln∘ [2, 16]: 3.3595 kcal/mol | ξH [2, 16]: 91.982% | ξTS [2, 16]: 8.018% | TMΔHsoln∘ [2, 17]: 2.289 kcal/mol | ΔGsoln∘ [2, 17]: 3.6702 kcal/mol | ΔHsoln∘ [2, 17]: 5.9591 kcal/mol | ξH [2, 17]: 72.250% | ξTS [2, 17]: 27.750% | TMΔHsoln∘ [2, 18]: 1.658 kcal/mol | ΔGsoln∘ [2, 18]: 3.5837 kcal/mol | ΔHsoln∘ [2, 18]: 5.2416 kcal/mol | ξH [2, 18]: 75.970% | ξTS [2, 18]: 24.030% | TMΔHsoln∘ [2, 19]: 0.196 kcal/mol | ΔGsoln∘ [2, 19]: 3.5172 kcal/mol | ΔHsoln∘ [2, 19]: 3.713 kcal/mol | ξH [2, 19]: 94.992% | ξTS [2, 19]: 5.008% | TMΔHsoln∘ [2, 20]: 0.0473 kcal/mol | ΔGsoln∘ [2, 20]: 3.4422 kcal/mol | ΔHsoln∘ [2, 20]: 3.4895 kcal/mol | ξH [2, 20]: 98.659% | ξTS [2, 20]: 1.341% | TMΔHsoln∘ [2, 21]: 0.7775 kcal/mol | ΔGsoln∘ [2, 21]: 3.3774 kcal/mol | ΔHsoln∘ [2, 21]: 4.1549 kcal/mol | ξH [2, 21]: 84.235% | ξTS [2, 21]: 15.765% | TMΔHsoln∘ [2, 22]: 0.3346 kcal/mol | ΔGsoln∘ [2, 22]: 3.2775 kcal/mol | ΔHsoln∘ [2, 22]: 3.6121 kcal/mol | ξH [2, 22]: 91.522% | ξTS [2, 22]: 8.478% | TMΔHsoln∘ [2, 23]: 0.4285 kcal/mol | ΔGsoln∘ [2, 23]: 3.2144 kcal/mol | ΔHsoln∘ [2, 23]: 3.6429 kcal/mol | ξH [2, 23]: 89.476% | ξTS [2, 23]: 10.524%
